# Results published in article PMC5039532, “Design and Synthesis of Analogues of Marine Natural Product Galaxamide, an N-methylated Cyclic Pentapeptide, as Potential Anti-Tumor Agent in Vitro” (Marine Drugs, 2016).
# Where two headings read alike, the source gives them in different places.
# Experiments:
# [1] = test system: human hepatocellular carcinoma HepG2; format: cell-based; conditions: 48 h
# Protocol: (§1) Lung cancer A549, drug-resistant lung cancer A549-DPP, human hepatocellular carcinoma HepG2 and hepatocellular carcinoma SMMC-7721 cells obtained from the China cell bank of the Institute of Biochemistry and were cultured in DMEM culture medium (DMEM, Corning, NY, USA) containing 10% fetal bovine serum (FBS, Hyclone, Logan, UT, USA), 1% penicillin-streptomycin and an antifungal agent in a 5% CO2 humidified atmosphere at 37 °C. The culture medium was replaced once in a day. Trypsin digestion method was adopted for cell propagation. Upon reaching 80%–90% confluence, the cells were rinsed twice with PBS. A certain amount of 0.25% trypsin digestion solution was then added and maintained for 3–5 min at 37 °C. Afterward, DMEM culture medium containing 10% fetal bovine serum was added to terminate the digestion. The cells were then blown well to form single cell suspensions.
# (§2) The cell viability was determined by measuring the ability of cells to transform MTT (Genview, Houston, TX, USA) to a purple formazan dye. The cells were seeded in 96-well tissue culture plates at 2.5 × 10^3 cells/well for 24 h. The cells were then incubated with galaxamide and its analogues for 48 h. After incubation, 20 μL/well of MTT solution (5 mg/mL phosphate buffered saline) were added and incubated for 5 h. The medium was aspirated and replaced with 100 μL/well of DMSO to dissolve the formazan salt. The color intensity of the formazan solution, which reflects the cell growth condition, was measured at 570 nm using a microplate spectrophotometer (SpectroAma™ 250, Winooski, VT, USA).
# [2] = test system: Lung cancer cell line A549; format: cell-based, human; conditions: 48 h
# Protocol: as §1, §2
# [3] = test system: hepatocellular carcinoma SMMC-7721 cells; format: cell-based, human; conditions: for IC50 Value SMMC-7721: 48 h
# Protocol: as §1, §2
# [4] = test system: drug-resistant lung cancer cell line A549/DPP; format: cell-based, human; conditions: 48 h
# Protocol: as §1, §2
# [5] = amide bond, 15-membered ring, PyBOP/DIEA, DCM, 0.7 mM, 25.0 °C
# [6] = ratio of IC50 values, MTT assay
IC50 Value HepG2 [1] [µg/mL],IC50 Value A549 [2] [µg/mL],IC50 Value SMMC-7721 [3] [µg/mL],IC50 Value A549-DPP [4] [µg/mL],SMILES,other results
12.15,8.74,1.25,27.2,"CC(C)C[C@H]1NC(=O)[C@@H](CC(C)C)NC(=O)[C@H](CC(C)C)N(C)C(=O)[C@@H](CC(C)C)NC(=O)[C@H](Cc2ccccc2)NC1=O [Compound 1, cyclo(Phe-D-Leu-N-Me-Leu-D-Leu-D-Leu)]","anti-tumor activity towards SMMC-7721, fold higher than galaxamide [3, 6]: 9 fold; anti-tumor activity towards SMMC-7721, fold higher than reference DPP (cisplatin) [3, 6]: 10 fold"
7.76,5.27,5.48,15.01,"CC(C)C[C@@H]1NC(=O)[C@@H](Cc2ccccc2)NC(=O)[C@@H](CC(C)C)NC(=O)[C@@H](CC(C)C)NC(=O)[C@H](CC(C)C)N(C)C1=O [Compound 2, cyclo(D-Phe-Leu-N-Me-Leu-D-Leu-D-Leu)]",–
18.82,5.17,2.77,11.41,"CC(C)C[C@@H]1NC(=O)[C@H](Cc2ccccc2)NC(=O)[C@@H](CC(C)C)NC(=O)[C@@H](CC(C)C)NC(=O)[C@@H](CC(C)C)N(C)C1=O [Compound 3, cyclo(Phe-Leu-D-N-Me-Leu-D-Leu-D-Leu)]",–
16.58,8.89,1.53,19.71,"CC(C)C[C@@H]1NC(=O)[C@@H](CC(C)C)N(C)C(=O)[C@H](CC(C)C)NC(=O)[C@@H](Cc2ccccc2)NC(=O)[C@@H](CC(C)C)NC1=O [Compound 4, cyclo(D-Phe-Leu-D-N-Me-Leu-Leu-D-Leu)]",–
5.23,6.89,2.74,23.61,"CC(C)C[C@H]1NC(=O)[C@@H](Cc2ccccc2)NC(=O)[C@H](CC(C)C)N(C)C(=O)[C@@H](CC(C)C)NC(=O)[C@H](CC(C)C)N(C)C1=O [Compound 5, cyclo(D-Phe-D-Leu-N-Me-Leu-D-Leu-N-Me-Leu)]",–
4.25,5.21,2.7,17.73,"CC(C)C[C@@H]1NC(=O)[C@H](CC(C)C)N(C)C(=O)[C@H](CC(C)C)NC(=O)[C@@H](CC(C)C)N(C)C(=O)[C@@H](Cc2ccccc2)NC1=O [Compound 19, cyclo(D-Phe-D-N-Me-Leu-Leu-N-Me-Leu-Leu)]",–
9.68,7.41,3.35,16.15,"CC(C)C[C@@H]1NC(=O)[C@H](Cc2ccccc2)NC(=O)[C@H](CC(C)C)N(C)C(=O)[C@@H](CC(C)C)NC(=O)[C@H](CC(C)C)NC1=O [Compound 20, cyclo(Phe-Leu-Leu-D-Leu-N-Me-Leu)]",–
15.3,6.47,8.21,18.6,"CC(C)C[C@H]1NC(=O)[C@H](Cc2ccccc2)NC(=O)[C@H](CC(C)C)N(C)C(=O)[C@@H](CC(C)C)NC(=O)[C@@H](CC(C)C)NC1=O [Compound 21, cyclo(Phe-D-Leu-D-Leu-D-Leu-N-Me-Leu)]",–
26.62,5.85,4.32,9.13,"CC(C)C[C@@H]1NC(=O)[C@@H](Cc2ccccc2)NC(=O)[C@H](CC(C)C)N(C)C(=O)[C@H](CC(C)C)NC(=O)[C@@H](CC(C)C)NC1=O [Compound 23, cyclo(D-Phe-Leu-D-Leu-Leu-N-Me-Leu)]",–
7.92,3.45,7.04,9.26,"CC(C)C[C@@H]1NC(=O)[C@H](Cc2ccccc2)NC(=O)[C@@H](CC(C)C)N(C)C(=O)[C@H](CC(C)C)NC(=O)[C@H](CC(C)C)NC1=O [Compound 24, cyclo(Phe-Leu-Leu-Leu-D-N-Me-Leu)]",–
–,–,–,–,CC(C)C[C@H]1NC(=O)[C@@H](Cc2ccccc2)NC(=O)[C@H](CC(C)C)N(C)C(=O)[C@@H](CC(C)C)NC(=O)[C@H](CC(C)C)N(C)C1=O [cyclo(D-Phe-D-Leu-N-Me-Leu-D-Leu-N-Me-Leu)],"ring closure, yield after HPLC ([5]; from H-dPhe-dLeu-MeLeu-dLeu-MeLeu-OH?): 53.9%"
–,–,–,–,CC(C)C[C@@H]1NC(=O)[C@H](CC(C)C)N(C)C(=O)[C@H](CC(C)C)NC(=O)[C@@H](CC(C)C)N(C)C(=O)[C@@H](Cc2ccccc2)NC1=O [cyclo(D-Phe-D-N-Me-Leu-Leu-N-Me-Leu-Leu)],"ring closure, yield after HPLC ([5]; from H-dPhe-dMeLeu-Leu-MeLeu-Leu-OH?): 45.5%"
–,–,–,–,CC(C)C[C@@H]1NC(=O)[C@@H](Cc2ccccc2)NC(=O)[C@@H](CC(C)C)N(C)C(=O)[C@@H](CC(C)C)NC(=O)[C@@H](CC(C)C)NC1=O [cyclo(D-Phe-Leu-D-Leu-D-Leu-D-N-Me-Leu)],"ring closure, yield after HPLC ([5]; from H-dPhe-Leu-dLeu-dLeu-dMeLeu-OH?): 50%"
–,–,–,–,CC(C)C[C@@H]1NC(=O)[C@@H](Cc2ccccc2)NC(=O)[C@H](CC(C)C)N(C)C(=O)[C@H](CC(C)C)NC(=O)[C@@H](CC(C)C)NC1=O [cyclo(D-Phe-Leu-D-Leu-Leu-N-Me-Leu)],"ring closure, yield after HPLC ([5]; from H-dPhe-Leu-dLeu-Leu-MeLeu-OH?): 48.5%"
–,–,–,–,CC(C)C[C@@H]1NC(=O)[C@@H](CC(C)C)N(C)C(=O)[C@H](CC(C)C)NC(=O)[C@@H](Cc2ccccc2)NC(=O)[C@@H](CC(C)C)NC1=O [cyclo(D-Phe-Leu-D-N-Me-Leu-Leu-D-Leu)],"ring closure, yield after HPLC ([5]; from H-dPhe-Leu-dMeLeu-Leu-dLeu-OH?): 53.8%"
–,–,–,–,CC(C)C[C@@H]1NC(=O)[C@H](CC(C)C)NC(=O)[C@@H](Cc2ccccc2)NC(=O)[C@H](CC(C)C)N(C)C(=O)[C@@H](CC(C)C)NC1=O [cyclo(D-Phe-Leu-Leu-D-Leu-N-Me-Leu)],"ring closure, yield after HPLC ([5]; from H-dPhe-Leu-Leu-dLeu-MeLeu-OH?): 65.4%"
–,–,–,–,CC(C)C[C@@H]1NC(=O)[C@@H](Cc2ccccc2)NC(=O)[C@@H](CC(C)C)NC(=O)[C@@H](CC(C)C)NC(=O)[C@H](CC(C)C)N(C)C1=O [cyclo(D-Phe-Leu-N-Me-Leu-D-Leu-D-Leu)],"ring closure, yield after HPLC ([5]; from H-dPhe-Leu-MeLeu-dLeu-dLeu-OH?): 61.5%"
–,–,–,–,CC(C)C[C@@H]1NC(=O)[C@H](CC(C)C)N(C)C(=O)[C@@H](Cc2ccccc2)NC(=O)[C@@H](CC(C)C)N(C)C(=O)[C@H](CC(C)C)NC1=O [cyclo(D-Phe-N-Me-Leu-Leu-Leu-D-N-Me-Leu)],"ring closure, yield after HPLC ([5]; from H-dPhe-MeLeu-Leu-Leu-dMeLeu-OH?): 45.1%"
–,–,–,–,CC(C)C[C@H]1NC(=O)[C@H](Cc2ccccc2)NC(=O)[C@H](CC(C)C)N(C)C(=O)[C@@H](CC(C)C)NC(=O)[C@@H](CC(C)C)NC1=O [cyclo(Phe-D-Leu-D-Leu-D-Leu-N-Me-Leu)],"ring closure, yield after HPLC ([5]; from H-Phe-dLeu-dLeu-dLeu-MeLeu-OH?): 55.1%"
–,–,–,–,CC(C)C[C@H]1NC(=O)[C@@H](CC(C)C)NC(=O)[C@H](CC(C)C)N(C)C(=O)[C@@H](CC(C)C)NC(=O)[C@H](Cc2ccccc2)NC1=O [cyclo(Phe-D-Leu-N-Me-Leu-D-Leu-D-Leu)],"ring closure, yield after HPLC ([5]; from H-Phe-dLeu-MeLeu-dLeu-dLeu-OH?): 57.3%"
–,–,–,–,CC(C)C[C@@H]1NC(=O)[C@H](Cc2ccccc2)NC(=O)[C@@H](CC(C)C)NC(=O)[C@@H](CC(C)C)NC(=O)[C@@H](CC(C)C)N(C)C1=O [cyclo(Phe-Leu-D-N-Me-Leu-D-Leu-D-Leu)],"ring closure, yield after HPLC ([5]; from H-Phe-Leu-dMeLeu-dLeu-dLeu-OH?): 51.7%"
–,–,–,–,CC(C)C[C@@H]1NC(=O)[C@H](Cc2ccccc2)NC(=O)[C@H](CC(C)C)N(C)C(=O)[C@@H](CC(C)C)NC(=O)[C@H](CC(C)C)NC1=O [cyclo(Phe-Leu-Leu-D-Leu-N-Me-Leu)],"ring closure, yield after HPLC ([5]; from H-Phe-Leu-Leu-dLeu-MeLeu-OH?): 46.1%"
–,–,–,–,CC(C)C[C@@H]1NC(=O)[C@H](Cc2ccccc2)NC(=O)[C@@H](CC(C)C)N(C)C(=O)[C@H](CC(C)C)NC(=O)[C@H](CC(C)C)NC1=O [cyclo(Phe-Leu-Leu-Leu-D-N-Me-Leu)],"ring closure, yield after HPLC ([5]; from H-Phe-Leu-Leu-Leu-dMeLeu-OH?): 66.4%"
